Laboratory results as given in paper PMC6631792, “In Vitro and In Vivo Anti-Breast Cancer Activities of Some Newly Synthesized 5-(thiophen-2-yl)thieno-[2,3-d]pyrimidin-4-one Candidates” (Molecules, 2019).

What was measured:
[1] = Average animal weight in MCF-7 mouse xenograft model; type: in vivo; details: nude mice with MCF-7 xenograft, i.p.; for Average Weight of Animals in Grams after Days 0: day 0; for Average Weight of Animals in Grams after Days 2: day 2; for Average Weight of Animals in Grams after Days 4: day 4; for Average Weight of Animals in Grams after Days 6: day 6; for Average Weight of Animals in Grams after Days 8: day 8; for Average Weight of Animals in Grams after Days 10: day 10; for Average Weight of Animals in Grams after Days 12: day 12; for Average Weight of Animals in Grams after Days 14: day 14; for Average Weight of Animals in Grams after Days 16: day 16; for Average Weight of Animals in Grams after Days 18: day 18; for Average Weight of Animals in Grams after Days 20: day 20; for Average Weight of Animals in Grams after Days 22: day 22
Text: “In this work, MCF-7 mouse xenograft model was used. The animal protocol was approved by the Institutional Animal Use Ethics and Care Committee of the University of Alabama at Birmingham (50-01-05-08B). Female athymic pathogen-free nude mice (nu/nu, 4–6 weeks) were purchased from Frederick Cancer Research and Development Center (Frederick, MD, USA). To establish MCF-7 human breast cancer xenografts, each of the female nude mice was first implanted with a 60-day (subcutaneously, s.c.) slow release estrogen pellet (SE-121, 1.7 mg […]/pellet; Innovative Research of America, Sarasota, FL, USA). After 24 h, grown cells were harvested, washed twice with serum-free medium, resuspended, and injected subcutaneously (5 million cells/0.2 mL) into the left inguinal area of the mice. During the experiment, animals were checked periodically and the percentages of tumor growth, as well as animal weights, were recorded. Every 48 h, the size of the tumor was recorded by measuring two perpendicular diameters of the tumor and tumor volume was calculated according to Wang et al. [46]”.
“Treated animals and control groups (7–10 mice/group) received different compounds and vehicles, respectively. The tested compounds were dissolved in PEG400:ethanol:saline (57.1:14.3:28.6, v/v/v), and injected intraperitoneal (i.p.) at doses of […], 3 d/wk for 3 weeks. The higher dose (10 µM/kg/d, 3 d/wk) inhibited MCF-7 xenograft tumor growth”.

MCF-7 cells = assay: MTT cytotoxic assay on MCF-7 cells; type: cell-based, Human; details: Homo sapiens, MCF7
Text: “Human breast cancer cells (MCF-7) and normal non-tumorigenic MCF-10A cells were used throughout the work. Cells were obtained from ATCC, Gaithersburg, MD, USA. Standard MTT assay was used to explore the possible cytotoxic effects of the synthesized compounds [41, 42]. Medium composition, cultivation conditions and assay performance were exactly the same as our previous work. […] After MTT addition, the absorbance of the dissolved formazan crystals was read at 570 nm. The IC50 values were obtained with linear regression equations using Origin® 6.1 software (Origin Lab Corporation, Northampton, MA, USA)”.

Compound: NNC(=O)Cn1cnc2scc(-c3cccs3)c2c1=O [Compound 4, 2-(4-oxo-5-(thiophen-2-yl)thieno[2,3-d]pyrimidin-3(4H)-yl)acetohydrazide]
- Average Weight of Animals in Grams after Days 0 [1]: 24.2 Grams
- Average Weight of Animals in Grams after Days 2 [1]: 24.2 Grams
- Average Weight of Animals in Grams after Days 4 [1]: 24.1 Grams
- Average Weight of Animals in Grams after Days 6 [1]: 24.0 Grams
- Average Weight of Animals in Grams after Days 8 [1]: 23.9 Grams
- Average Weight of Animals in Grams after Days 10 [1]: 23.9 Grams
- Average Weight of Animals in Grams after Days 12 [1]: 23.7 Grams
- Average Weight of Animals in Grams after Days 14 [1]: 23.7 Grams
- Average Weight of Animals in Grams after Days 16 [1]: 23.6 Grams
- Average Weight of Animals in Grams after Days 18 [1]: 23.6 Grams
- Average Weight of Animals in Grams after Days 20 [1]: 23.6 Grams
- melting point: 205 to 207 °C
- IC50 (MCF-7 cells): 4.87 ± 0.098 µM

Compound: COc1cccc(C=NNC(=O)Cn2cnc3scc(-c4cccs4)c3c2=O)c1OC [Compound 6, N′-(2,3-Dimethoxybenzylidene)-2-(4-oxo-5-(thiophen-2-yl)thieno[2,3-d]pyrimidin-3(4H)-yl)-acetohydrazide]
- Average Weight of Animals in Grams after Days 0 [1]: 23.7 Grams
- Average Weight of Animals in Grams after Days 2 [1]: 23.7 Grams
- Average Weight of Animals in Grams after Days 4 [1]: 23.6 Grams
- Average Weight of Animals in Grams after Days 6 [1]: 23.6 Grams
- Average Weight of Animals in Grams after Days 8 [1]: 23.5 Grams
- Average Weight of Animals in Grams after Days 10 [1]: 23.5 Grams
- Average Weight of Animals in Grams after Days 12 [1]: 23.5 Grams
- Average Weight of Animals in Grams after Days 14 [1]: 23.4 Grams
- Average Weight of Animals in Grams after Days 16 [1]: 23.4 Grams
- Average Weight of Animals in Grams after Days 18 [1]: 23.5 Grams
- Average Weight of Animals in Grams after Days 20 [1]: 23.5 Grams
- Average Weight of Animals in Grams after Days 22 [1]: 23.5 Grams
- melting point: 248 to 250 °C
- IC50 (MCF-7 cells): 4.52 ± 0.085 µM

Compound: O=C(Cn1cnc2scc(-c3cccs3)c2c1=O)NN=Cc1ccc(Cl)cc1 [Compound 7, N′-(4-Chlorobenzylidene)-2-(4-oxo-5-(thiophen-2-yl)thieno[2,3-d]pyrimidin-3(4H)-yl)acetohydrazide]
- Average Weight of Animals in Grams after Days 0 [1]: 27.3 Grams
- Average Weight of Animals in Grams after Days 2 [1]: 27.3 Grams
- Average Weight of Animals in Grams after Days 4 [1]: 27.2 Grams
- Average Weight of Animals in Grams after Days 6 [1]: 27.2 Grams
- Average Weight of Animals in Grams after Days 8 [1]: 27.2 Grams
- Average Weight of Animals in Grams after Days 10 [1]: 27.1 Grams
- Average Weight of Animals in Grams after Days 12 [1]: 27.1 Grams
- Average Weight of Animals in Grams after Days 14 [1]: 27.1 Grams
- Average Weight of Animals in Grams after Days 16 [1]: 27.0 Grams
- Average Weight of Animals in Grams after Days 18 [1]: 27.0 Grams
- Average Weight of Animals in Grams after Days 20 [1]: 27.0 Grams
- Average Weight of Animals in Grams after Days 22 [1]: 27.0 Grams
- melting point: 250 to 252 °C
- IC50 (MCF-7 cells): 4.33 ± 0.076 µM

Compound: O=C(Cn1cnc2scc(-c3cccs3)c2c1=O)NN1C(=O)CSC1c1ccc(Cl)cc1 (stereo not shown) [Compound 9, N-(2-(4-Chlorophenyl)-4-oxothiazolidin-3-yl)-2-(4-oxo-5-(thiophen-2-yl)thieno[2,3-d]-pyrimidin-3(4H)-yl)-acetamide]
- Average Weight of Animals in Grams after Days 0 [1]: 24.1 Grams
- Average Weight of Animals in Grams after Days 2 [1]: 24.1 Grams
- Average Weight of Animals in Grams after Days 4 [1]: 24.0 Grams
- Average Weight of Animals in Grams after Days 6 [1]: 24.0 Grams
- Average Weight of Animals in Grams after Days 8 [1]: 24.0 Grams
- Average Weight of Animals in Grams after Days 10 [1]: 24.0 Grams
- Average Weight of Animals in Grams after Days 12 [1]: 23.7 Grams
- Average Weight of Animals in Grams after Days 14 [1]: 23.7 Grams
- Average Weight of Animals in Grams after Days 16 [1]: 23.6 Grams
- Average Weight of Animals in Grams after Days 18 [1]: 23.6 Grams
- Average Weight of Animals in Grams after Days 20 [1]: 23.6 Grams
- Average Weight of Animals in Grams after Days 22 [1]: 23.6 Grams
- melting point: 175 to 177 °C
- IC50 (MCF-7 cells): 2.37 ± 0.053 µM
